Test results taken from US20230046081A1, “SYNERGISTIC ACTIVITY OF NOVEL COMPOUNDS AGAINST PLANKTONIC AND BIOFILM CELLS OF CLINICALLY RELEVANT PATHOGENS” (priority 2021, published 2023).
Structures can show the parent of a compound that is named as a salt.

Legend:
[1] = test system: Gram-positive, Gram-negative, and fungal biofilms; test: MBEC Assay, 48 h old biofilms on pegs, 24 h antimicrobial exposure; type: cell-based; settings: 24 hours of treatment
Procedure: The evaluation of the biofilm cultivation cell composition was evaluated using an MBEC Assay® biofilm inoculator, consisting of a polystyrene lid with 96 downward-protruding pegs and a corresponding base used to grow biofilms. A standardized inoculum was diluted in an appropriate biofilm growth medium to achieve a viable cell count of 1.5×10^6 CFU/mL of bacterial cells or 5×10^5 CFU/mL of fungal cells. Then, 150 μL of this inoculum was transferred into each appropriate well, and the peg lids were inserted into the microtiter plates. The plates were sealed with Parafilm and were incubated at optimum temperature for 48 h with slight rocking for bacteria and shaking at 200 rpm for fungal strains. After incubation, the peg lid was removed from the base and rinsed twice with sterile phosphate-buffered saline (PBS) for 2 min to remove loosely attached non-sessile cells. Before the antimicrobial challenge, the pegs in column 1 (n=8) were considered as the biofilm growth control; these pegs were removed from the lids, placed into 200 μL of recovery medium, and analyzed for starting biofilm cell numbers as described below. […] After the antimicrobial challenge, the pegs were rinsed twice with sterile PBS for 2 min and placed into a new 96-well plate containing 200 μL of recovery medium. The recovery plates were sealed with Parafilm, and biofilm cells were dislodged from the pegs by sonication for 30 min with a Branson 3510 bath sonicator. The biofilm cells in the recovery medium were serially diluted, and a drop dilution assay was performed to enumerate the viable cells.

[2] = test system: bacterial and fungal biofilms (eight test organisms); test: Rapid biofilm eradication, 48-h old biofilms, 2 hour exposure; type: cell-based
Procedure: This example comprises performing biofilm growth as described above. After biofilm formation, control pegs (n=6) were removed and analyzed to determine the starting biofilm cell numbers via the drop dilution method. The 48-h old biofilms on the pegs were exposed to different concentrations of test antimicrobials, dissolved in an appropriate growth medium, for 2 hours to evaluate their efficacy alone and in combination. […] Following treatment, pegs were washed twice with sterile PBS, and the biofilm cells were dislodged into recovery medium and enumerated as described above.

[3] = dog, in vivo; cited from earlier work
[4] = test system: Klebsiella pneumoniae, E. coli, S. epidermidis, P. aeruginosa, and C. albicans; settings: 40 mg/mL, locked for 21-25 h; cited from earlier work
[5] = test system: commonly encountered pathogens; settings: cited from earlier work

Compound | concentration alone able to eradicate all established biofilms [1] | eradication of preformed biofilms, agent alone at its MBEC [2] | cochlear or vestibular neurotoxicity [3] | biofilm colonization on catheter segments [4] | minimum ethanol required to provide a 3-log reduction [5]
[H]/N=C(\N/C(=N/[H])NCCCCCCNC(=N)NC(=N)Nc1ccc(Cl)cc1)Nc1ccc(Cl)cc1 [chlorhexidine HCl, 1,6-bis(4-chloro-phenylbiguanido)hexane, reference compound] | 100 µg/mL | failed to eradicate |  |  | 
[H]/N=C(\N/C(=N/[H])NCCCCCCNC(=N)NC(=N)Nc1ccc(Cl)cc1)Nc1ccc(Cl)cc1 [chlorhexidine, 1,6-bis(4-chloro-phenylbiguanido)hexane] |  |  | did not induce cochlear or vestibular neurotoxicity |  | 
O=C(O)CN(CCN(CC(=O)O)CC(=O)O)CC(=O)O.[Na].[Na].[Na].[Na] [tetrasodium EDTA, tetrasodium ethylenediaminetetraacetic acid] | 4% | failed to eradicate |  | reduced biofilm colonization | 
CCO [ethanol, reference compound] | 50% | failed to eradicate |  |  | ≥ 60%
